The values below are quoted from earlier work in patent publication US12102063B2 (SYNEXIS LLC, priority 2017, dated 2024).

The test system of one data set is Salmonella typhimurium. The conditions noted are these: eggs dipped twice in 6% H2O2 solution; cited from earlier work.
For a further data set, the system named is Salmonella. The conditions noted are these: […] solution with vacuum and surfactant; cited from earlier work.
Data set [1] deals with bacterial counts on eggshells. The conditions noted are these: 3% solution combined with ultraviolet light; cited from earlier work.

`OO` [H2O2, hydrogen peroxide]: in the data set on Salmonella typhimurium, the “reduction of the number of Salmonella in eggshell membranes” value is listed as 95% and the “reduction of the numbers of positive eggs” value was 55%. Moreover, the “treated eggs that remained contaminated” value in the data set on Salmonella is listed as 30%. The “reduction in bacterial counts (cfu/egg)” value in data set [1] was ≤ 3 log.
